Data published in the supplement of paper PMC10307832.

Columns and labels:
Experiment in all cases: relative viability (nuclei count vs DMSO), 5 days (fraction); higher = more cells survive
QS11 + Palbociclib = compound: C1CC2=C(C1)C=C(C=C2)OC3=NC(=C4C(=N3)N(C=N4)CC5=CC=C(C=C5)C6=CC=CC=C6)N[C@@H](CC7=CC=CC=C7)CO [QS11] + CC(=O)c1c(C)c2cnc(Nc3ccc(N4CCNCC4)cn3)nc2n(C2CCCC2)c1=O [Palbociclib] (partner 0.5 µM)
In short: (§1)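 Lung cancer cell lines were seeded in 1536-well plates and dosed by pin tool the next day, with either a single drug or a fixed anchor-drug dose combined with five library-drug doses (not always all listed) spaced in √10 steps. Five days later, one step fixed the cells and stained their nuclei (final 0.05% Triton X-100, 1% formaldehyde, 1 ug/ml Hoechst), and nuclei were counted on 4× images. Relative viability is the nuclei count in treated wells divided by the count in vehicle wells, and each value is the median of duplicate plates.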

[1] = compound: C[As](C)SC[C@H](NC(=O)CC[C@H](N)C(=O)O)C(=O)NCC(=O)O [Darinaparsin] + CCNC(=O)c1noc(-c2cc(C(C)C)c(O)cc2O)c1-c1ccc(CN2CCOCC2)cc1 [Luminespib] (partner 0.01 µM)
In short: as §1

AZ628 + Trametinib = compound: CC1=C(C=C(C=C1)NC(=O)C2=CC(=CC=C2)C(C)(C)C#N)NC3=CC4=C(C=C3)N=CN(C4=O)C [AZ628] + CC(=O)Nc1cccc(-n2c(=O)n(C3CC3)c(=O)c3c(Nc4ccc(I)cc4F)n(C)c(=O)c(C)c32)c1 [Trametinib] (partner 0.02 µM)
In short: as §1

AZ628 + Alpelisib = compound: CC1=C(C=C(C=C1)NC(=O)C2=CC(=CC=C2)C(C)(C)C#N)NC3=CC4=C(C=C3)N=CN(C4=O)C [AZ628] + Cc1nc(NC(=O)N2CCC[C@H]2C(N)=O)sc1-c1ccnc(C(C)(C)C(F)(F)F)c1 [Alpelisib] (partner 2 µM)
In short: as §1

Cell Line | relative viability (QS11 + Palbociclib; first compound 0.08 µM) | relative viability (QS11 + Palbociclib; first compound 0.253 µM) | relative viability (QS11 + Palbociclib; first compound 0.8 µM) | relative viability (QS11 + Palbociclib; first compound 2.53 µM) | relative viability (QS11 + Palbociclib; first compound 8 µM) | relative viability ([1]; first compound 0.08 µM) | relative viability ([1]; first compound 0.8 µM) | relative viability ([1]; first compound 2.53 µM) | relative viability ([1]; first compound 8 µM) | relative viability (AZ628 + Trametinib; first compound 0.08 µM) | relative viability (AZ628 + Trametinib; first compound 0.253 µM) | relative viability (AZ628 + Trametinib; first compound 0.8 µM) | relative viability (AZ628 + Trametinib; first compound 2.53 µM) | relative viability (AZ628 + Trametinib; first compound 8 µM) | relative viability (AZ628 + Alpelisib; first compound 0.08 µM) | relative viability (AZ628 + Alpelisib; first compound 0.253 µM) | relative viability (AZ628 + Alpelisib; first compound 0.8 µM) | relative viability (AZ628 + Alpelisib; first compound 2.53 µM) | relative viability (AZ628 + Alpelisib; first compound 8 µM)
SK-MES-1 | 0.322 | 0.285 | 0.268 | 0.311 | 0.295 | 1.19 | 0.691 | 0.88 | 0.864 | 0.32 | 0.318 | 0.308 | 0.262 | 0.369 | 0.821 | 0.956 | 0.823 | 0.779 | 0.674
NCI-H1944 | 0.312 | 0.344 | – | 0.275 | 0.254 | 0.84 | 0.705 | 0.686 | 0.676 | 0.321 | 0.305 | 0.254 | 0.295 | 0.33 | 0.855 | 0.718 | 0.673 | 0.68 | 0.586
SW 1573 | 0.388 | 0.35 | 0.339 | 0.223 | 0.161 | 0.23 | 0.364 | 0.302 | 0.249 | 0.443 | 0.346 | 0.334 | 0.3 | 0.329 | 0.787 | 0.742 | 0.693 | 0.567 | 0.538
PC-14 | – | 0.608 | 0.455 | 0.44 | 0.434 | 0.19 | 0.185 | 0.157 | 0.0932 | 0.441 | 0.301 | 0.205 | 0.178 | 0.195 | 1 | 0.854 | 0.923 | 1.01 | 0.751
LC-2-ad | 0.512 | 0.47 | 0.405 | 0.451 | 0.501 | 1.11 | 1.02 | 0.797 | 0.734 | 0.731 | 0.669 | 0.529 | 0.601 | 0.427 | 0.968 | 0.865 | 0.982 | 0.851 | 0.466
201T | 0.369 | 0.406 | 0.345 | 0.395 | 0.277 | 1.1 | 1.03 | 0.958 | 1.16 | 0.709 | 0.693 | 0.71 | 0.667 | 0.561 | 1.08 | 1.03 | 1.13 | 1.09 | 1.12
NCI-H2023 | 0.42 | 0.397 | 0.302 | 0.36 | 0.29 | 0.927 | 0.714 | 0.827 | 0.882 | 0.402 | 0.338 | 0.203 | 0.237 | 0.183 | 0.653 | 0.558 | 0.617 | 0.688 | 0.324
HOP-62 | 0.471 | 0.517 | 0.455 | 0.369 | 0.281 | 1.1 | 0.811 | 0.793 | 1.09 | 0.197 | 0.155 | 0.15 | 0.15 | 0.188 | 1.02 | 1.11 | 0.947 | 1.24 | 0.451
NCI-H661 | 0.379 | 0.374 | 0.332 | 0.402 | 0.34 | 0.934 | 0.874 | 1.08 | 1.04 | 0.509 | 0.426 | 0.413 | 0.377 | 0.535 | 0.647 | 0.401 | 0.497 | 0.598 | 0.363
NCI-H1734 | 0.374 | 0.389 | 0.31 | 0.32 | 0.324 | 0.201 | 0.16 | 0.2 | 0.19 | 0.42 | 0.386 | 0.313 | 0.344 | 0.301 | 0.658 | 0.595 | 0.571 | 0.619 | 0.498
EKVX | 0.401 | 0.375 | 0.33 | 0.284 | 0.391 | 0.872 | 0.924 | 0.926 | 0.962 | 0.368 | 0.227 | 0.248 | 0.273 | 0.195 | 0.909 | 0.903 | 0.949 | 0.983 | 0.866
NCI-H1355 | 0.43 | 0.314 | 0.299 | 0.35 | 0.38 | 0.702 | 0.725 | 0.559 | 0.568 | 0.384 | 0.303 | 0.28 | 0.292 | 0.286 | 0.849 | 0.742 | 0.737 | 0.685 | 0.558
H3255 | 0.327 | 0.363 | 0.301 | 0.31 | 0.298 | 0.88 | 0.94 | 0.807 | 0.95 | 0.525 | 0.413 | 0.384 | 0.401 | 0.365 | 0.724 | 0.653 | 0.75 | 0.747 | 0.496
NCI-H23 | 0.492 | 0.387 | 0.354 | 0.347 | 0.329 | 0.212 | – | 0.217 | 0.193 | 0.178 | 0.29 | 0.211 | 0.191 | 0.23 | 0.745 | 0.622 | 0.305 | 0.501 | 0.377
NCI-H1755 | 0.461 | 0.476 | 0.399 | 0.402 | 0.427 | 0.491 | 0.393 | 0.411 | 0.57 | 0.63 | 0.604 | 0.483 | 0.561 | 0.305 | 0.923 | 0.878 | 0.887 | 0.822 | 0.792
NCI-H650 | 0.328 | 0.34 | 0.304 | 0.286 | 0.327 | 0.81 | 0.793 | 0.872 | 0.831 | 0.568 | 0.393 | 0.357 | 0.365 | 0.282 | 1.32 | 1.44 | 1.38 | 1.29 | 0.939
